Measurements taken from patent EP0882010B1, “PHARMACEUTICAL AGENTS CONTAINING PERFLUOROALKYL-CONTAINING METAL COMPLEXES AND THE USE THEREOF IN TUMOUR THERAPY AND INTERVENTIONAL RADIOLOGY” (SCHERING AKTIENGESELLSCHAFT, priority 1996, dated 1997).
Entries after “also recorded” stand apart in the source; their conditions may differ. Read-outs that look alike come from different tables or passages of the source.

How the values were obtained:
[1] = T1 relaxivity at 20 MHz, 37°C; assay type: physicochemical
Description: c) Gadolinium-Komplex von 10-[2-Hydroxy-4-aza-5-oxo-7-aza-7-(perfluoroctylsulfonyl)-nonyl]-1,4,7-tris(carboxymethyl)-1,4,7,10-tetraazacyclododecan 10 g (17,09 mmol) der Titelverbindung aus Beispiel 1b) und […] (18,79 mmol) N-Hydroxysuccinimid werden in einer Mischung aus 50 ml Dimethylformamid/50 ml Chloroform gelöst. Bei 0°C gibt man 3,88 g (18,79 mmol) Dicyclohexylcarbodiimid zu und rührt 1 Stunde bei 0°C, anschließend 3 Stunden bei Raumtemperatur. Man kühlt erneut auf 0°C und gibt 5,19 g (51,27 mmol) Triethylamin/50 ml 2-Propanol zu. Anschließend werden 10,78 g (18,79 mmol) Gadolinium-Komplex von 10-(3-Amino-2-hydroxy-propyl)-1,4,7-tris(carboxymethyl)-1,4,7,10-tetraazacyclododecan (WO 95/17451) gelöst in 50 ml Wasser zugegeben und 3 Stunden bei Raumtemperatur gerührt. Man dampft zur Trockne ein, nimmt den Rückstand in einer Mischung aus 200 ml Methanol/100 ml Chloroform auf und filtriert vom Dicyclohexylharnstoff ab. Das Filtrat wird zur Trockne eingedampft und durch RP-Chromatographie gereinigt (RP-18/Laufmittel: Gradient aus Wasser/n-Propanol/ Acetonitril). Ausbeute: 16,37 g (78 % d. Th.) eines farblosen glasigen Feststoffes Wassergehalt: 7,1 % T1-Relaxivität (L/mmol·sec) bei 20 MHz, 37°C: 41 (Wasser) 49 (Humanplasma)
e) Mangan-Komplex von 10-[2-Hydroxy-4-aza-5-oxo-7-aza-7-(perfluoroctylsulfonyl)-nonyl]-1,4,7-tris(carboxymethyl)-1,4,7,10-tetraazacyclododecan (als Natriumsalz) 5 g (5,07 mmol) der Titelverbindung aus Beispiel ld) werden in 100 ml Wasser gelöst und 0,58 g (5,07 mmol) Mangan(II) -carbonat zugegeben. Man rührt3 Stunden bei 80°C. Die Lösung wird filtriert und das Filtrat mit 1 N Natronlauge auf pH 7,2 gestellt, anschließend wird gefriergetrocknet. Ausbeute: 5,87 g (quantitativ) eines farblosen amorphen Pulvers Wassergehalt: 8,4 % T1-Relaxivität (L/mmol·sec) bei 20 MHz, 37°C: 2,7 (Wasser) 4,2 (Humanplasma)
c) Gadolinium-Komplex von 10-[2-Hydroxy-4-aza-5-oxo-7-oxa-10,10,11,11,12,12,13,13,14,14,15,15,16,16,17,17,17-heptadecafluor-heptadecyl]-1,4,7-tris(carboxymethyl)-1,4,7,10-tetraazacyclododecan 7,0 g (13,41 mmol) der Titelverbindung aus Beispiel 2b) und 1,70 g (14,75 mmol) N-Hydroxysuccinimid werden in einer Mischung aus 30 ml Dimethylformamid/ 20 ml Chloroform gelöst. Bei 0°C gibt man 3,04 g (14,75 mmol) Dicyclohexylcarbodiimid zu und rührt 1 Stunde bei 0°C, anschließend 3 Stunden bei Raumtemperatur. Man kühlt erneut auf 0°C und gibt 4,48 g (44,25 mmol) Triethylamin/50 ml 2-Propanol zu. Anschließend werden 8,46 g (14,75 mmol) Gadolinium-Komplex von 10-(3-Amino-2-hydroxy-propyl)-1,4,7-tris(carboxymethyl)-1,4,7,10-tetraazacyclododecan gelöst in 40 ml Wasser zugegeben und 3 Stunden bei Raumtemperatur gerührt. Man dampft zur Trockne ein, nimmt den Rückstand in einer Mischung aus 100 ml Methanol/30 ml Chloroform auf und filtriert vom Dicyclohexylharnstoff ab. Das Filtrat wird zur Trockne eingedampft und durch RP-Chromatographie gereinigt (RP-18/Laufmittel: Gradient aus Wasser/n-Propanol/Acetonitril). Ausbeute: 11,8 g (75 % d. Th.) eines farblosen glasigen Feststoffes Wassergehalt: 8,2 % T1-Relaxivität (L/mmol·sec) bei 20 MHz, 37°C: 19 (Wasser) 33 (Humanplasma)
c) Gadolinium-Komplex von 10-[-2Hydroxy-4-oxa-1H,1H,2H,3H,3H,5H,5H,6H,6H-perfluor-tetradecyl]-1,4,7-tris(carboxymethyl)-1,4,7,10-tetraazacyclododecan 10 g (11,54 mmol) der Titelverbindung aus Beispiel 3b) werden in einer Mischung aus 100 ml Wasser/50 ml 2-Propanol gelöst und 2,09 g (5,77 mmol) Gadoliniumoxid zugegeben. Man rührt 3 Stunden bei 80°C. Die Lösung wird filtriert und im Vakuum zur Trockne eingedampft. Ausbeute: 12,48 g (quantitativ) eines glasigen Feststoffes Wassergehalt: 5,6 % T1-Relaxivität (L/mmol·sec) bei 20 MHz, 37°C: 15,2 (Wasser) 27,5 (Humanplasma)

VX-2 Tumorzellen = experiment: Therapy of a liver carcinoma in the rabbit (chemoembolisation, MRI control); assay type: in vivo, Chinchilla-Kaninchen; details: rabbit VX-2 liver tumour, 75 mmol/l solution with 50 mg Cisplatin, 8 ml via catheter, MRI after 7 days; control animals 3,7 ± 1,5
Description: Fünf männlichen Chinchilla-Kaninchen wurde durch Injektion von VX-2 Tumorzellen in den linken Leberlappen ein Tumor gesetzt. Dem narkotisiertem Tier wurde ein Katheter (60 cm lang, 1 mm Øa) über die Arteria femoralis bis in die Nähe des Tumors vorgeschoben. Dann wurde eine Lösung der Titelverbindung aus Beispiel 1 c [75 mmol/l mit 50 mg Cisplatin (=[…]) appliziert. Gesamtvolumen 8 ml.
Anschließend wurde der Katheter entfernt. Nach 7 Tagen wurden die Tiere mittels MRI untersucht. Es zeigte sich, daß der Tumor sich in seiner Größe verringert hat (durchschnittlicher Wachstumsfaktor 0,8 ± 0,2). Bei den Kontrolltieren (3 Tiere) wurden jedoch Wachstumsraten von 3,7 ± 1,5 beobachtet.

Nierengefäße der Ratte = experiment: Embolisation of the renal vessels in the rat, followed by X-ray; assay type: in vivo
Description: Als gut darstellbare Gefäße wurden die Nierengefäße der Ratte embolisiert.
Dem Tier wurde ein Katheter (20 cm lang, 0,58 mm Øi in die A. mesentrerica eingebunden und in die A. renalis der linken Niere vorgeschoben. Die Lösung der Verbindung aus Beispiel 1 c) (hier 50 mmol/1 mit 150 mg J/ml Isovist ®) wurde mit 160 µl/min appliziert. Gesamtvolumen 250 µl. Anschließend wurde der Katheter in die A. mesenterica zurückgezogen, um die Blutversorgung der Nieren im weiteren Verlauf nicht zu beinträchtigen. […] Zur Kontrolle der Nierendurchblutung wurde 1 Stunde nach der lokalen Applikation der Verbindung aus Beispiel lc) 400 µl des nierengängigen Röntgenkontrastmittels Ultravist ® 300 mg J/ml i.v. in die Schwanzvene gegeben.
Direkt nach intraarterieller, lokaler Gabe von 250 µl einer Lösung der Verbindung aus Beispiel 1 c) (50 mmol/L + 150 mg J/ml Isovist ® )in die katherisierte Nierenarterie (linke Niere, im Bild rechts)
5' p.a. Ultravist ®, 400 µl i.v. 1 Stunde nach lokaler Gabe der Verbindung aus Beispiel 1c) wurde Ultravist ® über die Schwanzvene gegeben.

[2] = for Konsistenz mit Zusatz von Harnstoff: 8 mol/L Harnstoff (final), also at substance concentration 400 mmol/L; for Löslichkeit in 96% Ethanol / Löslichkeit in 66% DMSO/Wasser / Löslichkeit in 66% Propylenglycol/Wasser: free-flowing solution; for Löslichkeit in Rinderplasma: solution of comparable consistency; for Einfluß auf die Konsistenz der Zubereitung: addition of 10 mmol/L HCl or NaOH, or 3 mol/L NaCl; for Veränderung der Konsistenz durch Triton X-100 / Veränderung der Konsistenz durch Tween 80: aqueous formulation; for Veränderung der Konsistenz durch Triton X-100: Triton X-100, 1.7%; for Veränderung der Konsistenz durch Tween 80: Tween 80, 4.6% final concentration; for Löslichkeit in 66% DMSO/Wasser / Löslichkeit in 66% Propylenglycol/Wasser: gut löslich at this concentration; for concentration below which a frei fließende Lösung results: in water, printed as 'Unterhalb von etwa'; for Löslichkeit in reinem DMSO: pure DMSO; for Löslichkeit in reinem Propylenglycol: pure Propylenglycol
Lebergefäße am Kaninchen = experiment: Embolisation of the liver vessels in the rabbit, followed by X-ray; assay type: in vivo
Description: Als gut darstellbare Gefäße wurden die Lebergefäße am Kaninchen embolisiert.
Dem narkotisierten Tier wurde ein Katheter (60 cm lang, 1,5 mm Øa) über die A. femoralis bis in die Leberarterie durch die Aorta vorgeschoben. Die Lösung von Gadoliniumkomplex aus Beispiel 1c) (50 mmol/L mit 150 mg J/ml Isovist ®) wurde mit 160 µL/min appliziert. Gesamtvolumen 800 µL. Anschließend wurde der Katheter in die Aorta zurückgezogen, um die arterielle Blutversorgung der Leber im weiteren Verlauf nicht zu beeinträchtigen. […] Zum Teil ist die Abnahme der Signalintensität auf ein Herausdiffündieren des Röntgenkontrastmittels Isovist ® zurückzuführen.

[3] = 100 mmol/L in water, by hand or infusion pump through a 20 cm, 0.58 mm Øi tube at 160 µL/min

SMILES | T1-Relaxivität ([1]; Humanplasma) | T1-Relaxivität ([1]; Wasser) | Applizierbarkeit der Lösung [2, 3] | Konsistenz der Lösung ([2]; 100 mmol/L solution in water) | Konsistenz mit Zusatz von Harnstoff [2] | Löslichkeit in 96% Ethanol [2] [mmol/L] | Löslichkeit in Rinderplasma [2] | Einfluß auf die Konsistenz der Zubereitung [2] | Veränderung der Konsistenz durch Triton X-100 [2] | Veränderung der Konsistenz durch Tween 80 [2] | Löslichkeit in 66% DMSO/Wasser [2] [mmol/L] | Löslichkeit in 66% Propylenglycol/Wasser [2] [mmol/L] | concentration below which a frei fließende Lösung results [2] [µM] | Löslichkeit in reinem DMSO [2] | Löslichkeit in reinem Propylenglycol [2] | other results
O=C([O-])CN1CCN(CC(=O)[O-])CCN(CC(O)CNC(=O)COCCC(F)(F)C(F)(F)C(F)(F)C(F)(F)C(F)(F)C(F)(F)C(F)(F)C(F)(F)F)CCN(CC(=O)[O-])CC1.[Gd+3] (stereo not drawn) [2c), Gadolinium-Komplex von 10-[2-Hydroxy-4-aza-5-oxo-7-oxa-10,10,11,11,12,12,13,13,14,14,15,15,16,16,17,17,17-heptadecafluor-heptadecyl]-1,4,7-tris(carboxymethyl)-1,4,7,10-tetraazacyclododecan] | 33 L/mmol/s | 19 L/mmol/s | – | – | – | – | – | – | – | – | – | – | – | – | – | –
O=C([O-])CN1CCN(CC(=O)[O-])CCN(CC(O)COCCC(F)(F)C(F)(F)C(F)(F)C(F)(F)C(F)(F)C(F)(F)C(F)(F)C(F)(F)F)CCN(CC(=O)[O-])CC1.[Gd+3] (stereo not drawn) [3c), Gadolinium-Komplex von 10-[-2Hydroxy-4-oxa-1H,1H,2H,3H,3H,5H,5H,6H,6H-perfluor-tetradecyl]-1,4,7-tris(carboxymethyl)-1,4,7,10-tetraazacyclododecan] | 27,5 L/mmol·sec | 15,2 L/mmol·sec | – | – | – | – | – | – | – | – | – | – | – | – | – | –
CCN(CC(=O)NCC(O)CN1CCN(CC(=O)[O-])CCN(CC(=O)[O-])CCN(CC(=O)[O-])CC1)S(=O)(=O)C(F)(F)C(F)(F)C(F)(F)C(F)(F)C(F)(F)C(F)(F)C(F)(F)C(F)(F)F.[Gd+3] (stereo not drawn) [Beispiel 1c), Gadolinium-Komplex von 10-[2-Hydroxy-4-aza-5-oxo-7-aza-7-(perfluoroctylsulfonyl)-nonyl]-1,4,7-tris(carboxymethyl)-1,4,7,10-tetraazacyclododecan] | 49 L/mmol/s | 41 L/mmol/s | problemlos | klar durchsichtig und besitzt eine gelartig feste Konsistenz | frei fließende Lösung | > 500 | ebenso löslich wie in reinem Wasser | keinen Einfluß auf die Konsistenz | Verflüssigung der gelartigen Konsistenz | keine Veränderung der Konsistenz | ≥ 150 | ≥ 250 | 10000 to 20000 | praktisch unlöslich | praktisch unlöslich | durchschnittlicher Wachstumsfaktor des Tumors (VX-2 Tumorzellen): 0,8 ± 0,2; Abgrenzung der Gefäße der linken Niere in Röntgenaufnahmen (Nierengefäße der Ratte; 250 µl of 50 mmol/1 solution with 150 mg J/ml Isovist into A. renalis at 160 µl/min): scharf gegenüber dem Nierenparenchym abgegrenzt; Enhancement der embolisierten linken Niere und ihres Harnleiters (Nierengefäße der Ratte; 400 µl Ultravist 300 mg J/ml i.v. 1 hour after local application, non-embolised right kidney enhanced): kein Enhancement; also recorded: bleibt dunkel; Signalintensität der Gefäße in der Niere (Nierengefäße der Ratte; up to 45 minutes after administration, attributed to Isovist diffusing out): deutlich ab; Applizierbarkeit der Lösung ([2]; 100 mmol/1 in water with 100 mg J/ml Isovist, 20 cm, 0,58 mm Øi tube at 160 µl/min): problemlos; Konsistenz der Lösung ([2]; 100 mmol/1 solution in water with 100 mg J/ml Isovist): klar durchsichtig und besitzt eine gelartig feste Konsistenz; Abgrenzung der Gefäße der Leber in Röntgenaufnahmen (Lebergefäße am Kaninchen; 800 µL of 50 mmol/L solution with 150 mg J/ml Isovist into liver artery at 160 µL/min): scharf gegenüber dem Leberparenchym abgegrenzt; Signalintensität der Gefäße in der Leber (Lebergefäße am Kaninchen; within 60 minutes after administration): nur langsam ab
CCN(CC(=O)NCC(O)CN1CCN(CC(=O)[O-])CCN(CC(=O)[O-])CCN(CC(=O)[O-])CC1)S(=O)(=O)C(F)(F)C(F)(F)C(F)(F)C(F)(F)C(F)(F)C(F)(F)C(F)(F)C(F)(F)F.[Mn+2].[Na+] (stereo not drawn) [Beispiel 1e), Mangan-Komplex von 10-[2-Hydroxy-4-aza-5-oxo-7-aza-7-(perfluoroctylsulfonyl)-nonyl]-1,4,7-tris(carboxymethyl)-1,4,7,10-tetraazacyclododecan (als Natriumsalz)] | 4,2 L/mmol·sec | 2,7 L/mmol·sec | – | – | – | – | – | – | – | – | – | – | – | – | – | –
CCN(CCCCCCCCCCC(=O)NCC(O)CN1CCN(CC(=O)[O-])CCN(CC(=O)[O-])CCN(CC(=O)[O-])CC1)S(=O)(=O)C(F)(F)C(F)(F)C(F)(F)C(F)(F)C(F)(F)C(F)(F)C(F)(F)C(F)(F)F.[Dy+3] (stereo not drawn) [Beispiel 30f)] | – | – | problemlos | klar durchsichtig und besitzt eine gelartig feste Konsistenz | frei fließende Lösung | > 500 | ebenso löslich wie in reinem Wasser | keinen Einfluß auf die Konsistenz | Verflüssigung der gelartigen Konsistenz | keine Veränderung der Konsistenz | ≥ 150 | ≥ 250 | 10000 to 20000 | praktisch unlöslich | praktisch unlöslich | –
